According to patent US10323023B2, “Rho-associated protein kinase inhibitor, pharmaceutical composition comprising the same, as well as preparation method and use thereof” (Beijing Tide Pharmaceutical Co., Ltd., priority 2017, dated 2019):

Target: ROCK2 (Homo sapiens (Human), UniProt O75116)
Assay: ROCK2 kinase IC50 by HTRF KinEASE-STK S2 kit
Type: biochemical
Conditions: 2 hours at room temperature, ROCK2 (01-119) from Carna Biosciences
Experimental: The kinase IC50 was determined by a commercialized CISBIO kinase detection kit, HTRF KinEASE-STK S2 kit (62ST2PEC). ROCK2 (01-119) employed in the reaction was purchased from Carna Biosciences.
Before the assay, the following working solutions as needed were formulated with corresponding reagents according to the instruction of the kinase detection kit: 1×kinase buffer, 5×STK-S2 substrate working solution (1.5 μM) and 5×ATP working solution (1.5 μM), 5×ROCK2 kinase working solution, 4×Streptavidin-XL665 working solution, and 4×STK-Ab-Cryptate 2 detection solution. Then the assay was performed according to the following procedure.
A solution of a compound at a concentration of 10000 nM was prepared with the 1×kinase buffer containing 2.5% DMSO. Gradient dilution of the solution of the compound was performed with the kinase buffer containing DMSO, so as to obtain solutions of a test compound at 9 different concentrations. In addition to wells of test compounds, a positive well (containing all the reagents except the compound) and a negative well (containing all the reagents except the test compound and kinase) were set. Except for the control wells (positive and negative wells), a solution of a test compound (4 μL) was added to each of the reaction wells, and a solution of 2.5% DMSO was added to the control wells. Then the substrate (2 μM, i.e., 2 μL 5×STK-S2 substrate working solution) was added to each of the reaction wells. The 5×ROCK2 kinase working solution (2 μL, containing 1.4 ng ROCK2 kinase) was added to each of the reaction wells except for the negative well, the volume of which was made up with the 1×kinase buffer (2 μL). The 5×ATP working solution (2 μL) was added to each of the reaction wells, and the mixtures were incubated at room temperature for 2 hours. After the kinase reaction was complete, the 4×Streptavidin-XL665 working solution was added to each of the reaction wells, the solutions were mixed, followed by immediate addition of the 4×STK-Ab-Cryptate 2 detection solution (5 μL), and the mixtures were incubated at room temperature for 1 hour. The fluorescence signal was read on ENVISION (Perkinelmer) (excitation wavelength: 320 nm, and emission wavelength: 665 nm and 615 nm). The inhibitory rate in each well was calculated based on the fluorescence intensity value: ER (Emission Ratio)=(fluorescence intensity at 665 nm/fluorescence intensity at 615 nm); inhibitory rate=(ERpositive−ERtest compound)/(ERpositive−ERnegative)*100%. Curves were plotted and fitted to obtain the median inhibitory concentration (IC50) of each test compound with the PRISM 5.0 software.

ROCK2, sequence (O75116 1-553 limits assumed): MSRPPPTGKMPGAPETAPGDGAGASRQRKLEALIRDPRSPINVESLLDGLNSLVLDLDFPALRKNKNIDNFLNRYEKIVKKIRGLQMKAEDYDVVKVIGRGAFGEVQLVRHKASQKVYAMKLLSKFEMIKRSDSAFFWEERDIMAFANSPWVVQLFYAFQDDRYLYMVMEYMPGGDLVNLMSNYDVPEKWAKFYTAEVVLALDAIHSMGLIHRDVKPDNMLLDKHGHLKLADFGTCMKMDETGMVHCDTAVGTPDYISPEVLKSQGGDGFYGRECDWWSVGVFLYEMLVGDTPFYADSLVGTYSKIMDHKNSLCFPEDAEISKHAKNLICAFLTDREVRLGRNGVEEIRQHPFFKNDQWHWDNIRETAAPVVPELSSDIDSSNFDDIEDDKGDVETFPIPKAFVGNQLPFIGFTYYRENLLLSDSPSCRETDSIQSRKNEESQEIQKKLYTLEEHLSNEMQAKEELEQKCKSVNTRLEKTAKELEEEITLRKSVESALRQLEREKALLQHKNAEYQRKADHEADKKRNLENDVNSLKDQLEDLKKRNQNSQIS

Compound	IC50
O=C(Nc1ccnnc1)c1cc2ccc(-c3nccc(Nc4ccc5[nH]ncc5c4)n3)cc2s1 [TDI01116, 6-(4-((1H-indazol-5-yl)amino)pyrimidin-2-yl)-N-(pyridazin-4-yl)benzo[b]thiophene-2-carboxamide]	236 nM
O=C(Nc1ccnnc1)c1cc2ccc(-c3nccc(Nc4ccc5[nH]ncc5c4)n3)cc2[nH]1 [TDI01152, 6-(4-((1H-indazol-5-yl)amino)pyrimidin-2-yl)-N-(pyridazin-4-yl)-1H-indole-2-carboxamide]	88 nM
O=C(Nc1ccnnc1)c1cc2ccc(-c3nc(Nc4ccc5[nH]ncc5c4)cc4nccn34)cc2[nH]1 [TDI01164, 6-(7-((1H-indazol-5-yl)amino)imidazo[1,2-c]pyrimidin-5-yl)-N-(pyridazin-4-yl)-1H-indole-2-carboxamide]	438 nM
O=C(Nc1ccnnc1)c1cc2ccc(-c3ncnc(Nc4ccc5[nH]ncc5c4)n3)cc2[nH]1 [TDI01167, 6-(4-((1H-indazol-5-yl)amino)-1,3,5-triazin-2-yl)-N-(pyridazin-4-yl)-1H-indole-2-carboxamide]	223 nM
O=C(Nc1ccnnc1)c1cc2ccc(-c3nc(Nc4ccc5[nH]ncc5c4)c4sccc4n3)cc2[nH]1 [TDI01175, 6-(4-((1H-indazol-5-yl)amino)thieno[3,2-d]pyrimidin-2-yl)-N-(pyridazin-4-yl)-1H-indole-2-carboxamide]	197 nM
O=C(NCc1ccnnc1)c1cc2ccc(-c3nccc(Nc4ccc5[nH]ncc5c4)n3)cc2[nH]1 [TDI01178, 6-(4-((1H-indazol-5-yl)amino)pyrimidin-2-yl)-N-(pyridazin-4-ylmethyl)-1H-indole-2-carboxamide]	168 nM
O=C(Nc1ccnnc1Cl)c1cc2ccc(-c3nccc(Nc4ccc5[nH]ncc5c4)n3)cc2[nH]1 [TDI01180, 6-(4-((1H-indazol-5-yl)amino)pyrimidin-2-yl)-N-(3-chloro-pyridazin-4-yl)-1H-indole-2-carboxamide]	37 nM
O=C(Nc1cnncc1Cl)c1cc2ccc(-c3nccc(Nc4ccc5[nH]ncc5c4)n3)cc2[nH]1 [TDI01181, 6-(4-((1H-indazol-5-yl)amino)pyrimidin-2-yl)-N-(5-chloro-pyridazin-4-yl)-1H-indole-2-carboxamide]	92 nM
O=C(Nc1ccnnc1)c1cc2cc(-c3nccc(Nc4ccc5[nH]ncc5c4)n3)ccc2[nH]1 [TDI01188, 5-(4-((1H-indazol-5-yl)amino)pyrimidin-2-yl)-N-(pyridazin-4-yl)-1H-indole-2-carboxamide]	123 nM
O=C(Nc1ccnnc1)c1c[nH]c2ccc(-c3nccc(Nc4ccc5[nH]ncc5c4)n3)cc12 [TDI01191, 5-(4-((1H-indazol-5-yl)amino)pyrimidin-2-yl)-N-(pyridazin-4-yl)-1H-indole-3-carboxamide]	225 nM
Cn1c(C(=O)Nc2ccnnc2)cc2ccc(-c3nccc(Nc4ccc5[nH]ncc5c4)n3)cc21 [TDI01201, 6-(4-((1H-indazol-5-yl)amino)pyrimidin-2-yl)-1-methyl-N-(pyridazin-4-yl)-1H-indole-2-carboxamide]	48 nM
O=C(Nc1ccnnc1)c1cc2ccc(-c3ncc(F)c(Nc4ccc5[nH]ncc5c4)n3)cc2[nH]1 [TDI01213, 6-(4-((1H-indazol-5-yl)amino)-5-fluoro-pyrimidin-2-yl)-N-(pyridazin-4-yl)-1H-indole-2-carboxamide]	255 nM
Cc1nc(-c2ccc3cc(C(=O)Nc4ccnnc4)[nH]c3c2)nc(Nc2ccc3[nH]ncc3c2)c1C [TDI01232, 6-(4-((1H-indazol-5-yl)amino)-5,6-dimethylpyrimidin-2-yl)-N-(pyridazin-4-yl)-1H-indole-2-carboxamide]	295 nM
O=C(Nc1ccnnc1)c1ccc2ccc(-c3nccc(Nc4ccc5[nH]ncc5c4)n3)cc2n1 [TDI01236, 7-(4-((1H-indazol-5-yl)amino)pyrimidin-2-yl)-N-(pyridazin-4-yl)quinoline-2-carboxamide]	135 nM
O=C(Nc1ccnnc1)N1Cc2ccc(-c3nccc(Nc4ccc5[nH]ncc5c4)n3)cc2C1 [TDI01237, 5-(4-((1H-indazol-5-yl)amino)pyrimidin-2-yl)-N-(pyridazin-4-yl)isoindoline-2-carboxamide]	171 nM
Cc1cnc(-c2ccc3cc(C(=O)Nc4ccnnc4)[nH]c3c2)nc1Nc1ccc2[nH]ncc2c1 [TDI01250, 6-(4-((1H-indazol-5-yl)amino)-5-methyl-pyrimidin-2-yl)-N-(pyridazin-4-yl)-1H-indole-2-carboxamide]	208 nM
Cc1cc(Nc2ccc3[nH]ncc3c2)nc(-c2ccc3cc(C(=O)Nc4ccnnc4)[nH]c3c2)n1 [TDI01251, 6-(4-((1H-indazol-5-yl)amino)-6-methyl-pyrimidin-2-yl)-N-(pyridazin-4-yl)-1H-indole-2-carboxamide]	101 nM
Cc1c(Nc2ccnc(-c3ccc4cc(C(=O)Nc5ccnnc5)[nH]c4c3)n2)ccc2[nH]ncc12 [TDI01276, 6-(4-((4-methyl-1H-indazol-5-yl)amino)pyrimidin-2-yl)-N-(pyridazin-4-yl)-1H-indole-2-carboxamide]	113 nM
CN(C(=O)c1cc2ccc(-c3nccc(Nc4ccc5[nH]ncc5c4)n3)cc2[nH]1)c1ccnnc1 [TDI01347, 6-(4-((1H-indazol-5-yl)amino)pyrimidin-2-yl)-N-methyl-N-(pyridazin-4-yl)-1H-indole-2-carboxamide]	356 nM
